Columns and labels:
[1] = system: left median and ulnar nerves; assay: Nerve conduction studies on Subject 1 in the clinical trial of PABA with antioxidant and vitamin co-agents; assay type: in vivo, human; conditions: for Latency: distal latency; for Latency / Amplitude / Conduction velocity: May 6, 1992 study; for Change in amplitude / Change in conduction velocity / Change in distal latency: May 6, 1992 vs Jun. 20, 1988
Procedure: Subject 1 is an individual and having hereditary motor and sensory neuropathy. The subject's family has the X-linked subvariety of the disease. All of the composition ingredients of this example were administered via the oral route. On Sep. 1, 1990 Subject 1 began taking three 100 mg tablets of p-aminobenzoic acid per day. This daily dosage consisted of single 100 mg tablets (Schiff Products, Moonachie, N.J.) taken one at a time approximately every eight hours. Also initiated at this time and taken three times per day: DL-methionine, 500 mg and vitamin E (as mix tocopherols in oil-based capsules), 200 I.U. Their weight at the time was approximately 165 lbs. The daily dosage times were approximately 8:00 AM, 4:00 PM and 11:30 PM. This original low dosage of PABA was selected in part as a check to ensure no adverse immunologic reaction. Symptoms of allergic reaction such as bronchial constriction or skin rash were not observed. […] On Oct. 1, 1990 Subject 1 began taking a total of 600 mg PABA per day by doubling the original dosage noted above; 200 mg taken three times per day. Also taken with PABA: DL-methionine, 500 mg and vitamin E, 200 I.U. On Jan. 1, 1991 Subject 1 began taking three 550 mg capsules of PABA (Solgar Co., Lynbrook, N.Y.) per day, one approximately every eight hours. DL-Methionine use was doubled to 1,000 mg every eight hours. Likewise, vitamin E deosage was doubled to 400 I.U. every eight hours. In addition, the following dietary supplements were initiated and taken once per day (4:00 PM): On Feb. 24, 1991 Subject 1 began taking six 550 mg capsules of PABA per day, two every eight hours plus the dietary supplement combination initiated January 1st. DL-Methionine and vitamin E dosage were continued as initiated January 1st; 3,000 mg and 1,200 I.U. total daily, respectively. Dosage of additional dietary supplements was also continued as initiated January 1st, with the addition of 100 mg vitamin B1 per day. Also, selenium daily dosage was reduced to 12 ug per day. As of May 1, 1991 consumption of pantothenic acid and vitamin B1 were tripled to 250 mg 3× daily and 100 mg 3× daily, respectively, taken with PABA. Also initiated now, vitamin B6, 100 mg taken 3× daily with PABA. As of Jul. 1, 1991 the methionine product was switched to “L-Methionine 500 mg Caps with Vitamin B6” (Nature's Plus, Farmingdale, N.Y.). Each capsule has the free form of the L-amino acid and 50 mg vitamin B6. This dose of vitamin B6 is in addition to the 300 mg/day noted in the preceding paragraph. As of Jul. 26, 1991 the vitamin E product was switched to “Natural Dry All E, 400 I.U.” (Schiff Products, Moonachie, N.J.). One of these dry powder capsules is taken 3× daily with PABA, as before. As of Aug. 7, 1991 daily doses of PABA, methionine and vitamin E were increased by 50%. Thus starting at this time, three 550 mg PABA capsules, three 500 mg methionine capsules, one 400 I.U. dry vitamin E and a 200 I.U. dry vitamin E capsule were taken at a time, three times per day. Daily totals of these agents were now: PABA, 4.95 gm; methionine, 4.5 gm; and vitamin E, 1,800 I.U. Other agents were taken as before. As of Nov. 22, 1991 the daily dose of PABA was increased. Thus starting at this time, four 550 mg PABA capsules were taken at a time, three times per day. Daily total of PABA was now 6.6 gm. Other agents were taken as before. On Jun. 20, 1988 Subject 1 participated in a nerve conduction research study at the National Institutes of Health. Nerve conduction data was recorded from the left median and ulnar nerves, which included conduction velocity, amplitude and distal latency for each nerve. On May 6, 1992 Subject 1 was tested again at the office of a neurologist in Bryn Mawr, Pa. This experimental drug trial involved a step-by-step increase in dosages over an extended period. […]

[2] = Check for adverse immunologic or clinical reaction to low-dose oral PABA in Subject 1; assay type: in vivo, human; conditions: oral PABA 100 mg three times per day with DL-methionine 500 mg and vitamin E 200 I.U.
Procedure: Subject 1 is an individual and having hereditary motor and sensory neuropathy. The subject's family has the X-linked subvariety of the disease. All of the composition ingredients of this example were administered via the oral route.
On Sep. 1, 1990 Subject 1 began taking three 100 mg tablets of p-aminobenzoic acid per day. This daily dosage consisted of single 100 mg tablets (Schiff Products, Moonachie, N.J.) taken one at a time approximately every eight hours. Also initiated at this time and taken three times per day: DL-methionine, 500 mg and vitamin E (as mix tocopherols in oil-based capsules), 200 I.U. Their weight at the time was approximately 165 lbs. The daily dosage times were approximately 8:00 AM, 4:00 PM and 11:30 PM. This original low dosage of PABA was selected in part as a check to ensure no adverse immunologic reaction. Symptoms of allergic reaction such as bronchial constriction or skin rash were not observed.

[3] = system: plasma cysteine, plasma glutathione and red blood cell glutathione; conditions: in vivo; cited from earlier work
myocardial glutathione = conditions: subsequent to experimental ischemia and reperfusion; cited from earlier work

Structure (SMILES): Nc1ccc(C(=O)O)cc1 [PABA, 4-Aminobenzoic acid]
- Latency ([1]; left median nerve, after PABA up to 6.6 gm/day with co-agents, pre-treatment Jun. 20, 1988 value 12.4): 13.1 ms
- Amplitude ([1]; left median nerve, after PABA up to 6.6 gm/day with co-agents, pre-treatment Jun. 20, 1988 value 0.4): 0.4 mV
- Conduction velocity ([1]; left median nerve, after oral PABA raised stepwise from 300 mg/day to 6.6 gm/day (Sep 1990-May 1992) with methionine, vitamin E and vitamin co-agents, Subject 1, X-linked HMSN, pre-treatment Jun. 20, 1988 value 28): 28.2 meters/sec
- Change in amplitude ([1]; left median nerve): remained unchanged
- Change in conduction velocity ([1]; left median nerve): remained unchanged
- Change in distal latency ([1]; left median nerve): increased (that is, worsened) by six percent
- Latency ([1]; left ulnar nerve, after PABA up to 6.6 gm/day with co-agents, pre-treatment Jun. 20, 1988 value 13.8): 13.1 ms
- Amplitude ([1]; left ulnar nerve, after PABA up to 6.6 gm/day with co-agents, pre-treatment Jun. 20, 1988 value 1.3): 2.4 mV
- Conduction velocity ([1]; left ulnar nerve, after PABA up to 6.6 gm/day with co-agents, pre-treatment Jun. 20, 1988 value 29): 31.8 meters/sec
- Change in amplitude ([1]; left ulnar nerve): improved by eighty-five percent
- Change in conduction velocity ([1]; left ulnar nerve): improved by ten percent
- Change in distal latency ([1]; left ulnar nerve): improved by five percent
- Clinical reaction to PABA [2]: no clinical reaction
- Symptoms of allergic reaction such as bronchial constriction or skin rash [2]: not observed

Structure (SMILES): CC(=O)N[C@@H](CS)C(=O)O [N-acetyl-cysteine]
- Levels of plasma cysteine, plasma glutathione and red blood cell glutathione [3]: increase
- Increase in myocardial glutathione (myocardial glutathione): 100 fold
